Biological target: T1, Streptokinase A (Streptococcus pyogenes serotype M1, UniProt P10520)
T1 sequence (P10520 whole entry): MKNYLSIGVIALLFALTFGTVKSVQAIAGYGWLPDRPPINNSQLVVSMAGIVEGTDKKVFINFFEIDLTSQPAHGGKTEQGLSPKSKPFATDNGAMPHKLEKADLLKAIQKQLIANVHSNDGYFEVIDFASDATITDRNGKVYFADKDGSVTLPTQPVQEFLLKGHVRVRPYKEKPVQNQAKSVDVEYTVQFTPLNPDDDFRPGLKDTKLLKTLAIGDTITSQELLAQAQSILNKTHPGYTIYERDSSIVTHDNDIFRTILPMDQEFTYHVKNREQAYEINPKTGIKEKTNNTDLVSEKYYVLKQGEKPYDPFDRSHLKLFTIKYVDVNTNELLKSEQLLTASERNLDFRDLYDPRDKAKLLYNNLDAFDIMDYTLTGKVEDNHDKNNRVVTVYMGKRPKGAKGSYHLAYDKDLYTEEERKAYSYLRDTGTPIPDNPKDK
Test: viability-normalized secreted streptokinase activity reduction – plasminogen activation absorbance, OD405, dose response (AID 1914)

| SMILES | EC50 |
| --- | --- |
| COc1cccc(CN=Nc2nc(Nc3ccccc3)nc(-n3nc(C)cc3C)n2)c1O [(6E)-6-[[2-[4-(3,5-dimethylpyrazol-1-yl)-6-phenylazanyl-1,3,5-triazin-2-yl]hydrazinyl]methylidene]-2-methoxy-cyclohexa-2,4-dien-1-one] | > 150 µM |
| Cc1cc(C)c2c(c1)C(=NNc1ccc(C(=O)O)cc1)C(O)=N2 [SMR000592331] | > 150 µM |
| CC(N=Nc1ccc(C(=O)O)cc1)c1ccc2c(c1)Nc1ccccc1S2 (stereo unspecified) [MLS000759774] | > 150 µM |
| COc1cccc(CN=Nc2cc(C)nc(-c3ccccc3O)n2)c1O [SMR000274167] | > 150 µM |
| CC(N=Nc1nc2ccc(Cl)cc2o1)c1ccccc1 (stereo unspecified) [6-chloranyl-N-(1-phenylethylideneamino)-1,3-benzoxazol-2-amine] | > 150 µM |
| O=C1C(=NNC(=S)Nc2ccccc2F)c2ccccc2N1Cc1cccc(Cl)c1 [1-[(Z)-[1-[(3-chlorophenyl)methyl]-2-oxoindol-3-ylidene]amino]-3-(2-fluorophenyl)thiourea] | > 150 µM |
| Cc1ccc(NC(=S)N/N=C2\C(=O)Nc3ccccc32)cc1 [MLS000760038] | > 150 µM |
| CCC(C)N1C(=O)C(=CNNc2ccccc2)C(=O)NC1=S (stereo unspecified) | > 150 µM |
| CC1=C2C(=NC3=C(C(=O)c4ccccc43)C2c2c(C)cc(C)cc2C)N(c2ccccn2)N1 (stereo unspecified) [SMR000263933] | 22.2 µM |
| Oc1nc(Nc2ccc(Cl)cc2)sc1Cc1cc(Cl)ccc1Cl [2-(4-chloroanilino)-5-(2,5-dichlorobenzyl)-2-thiazolin-4-one] | > 150 µM |
| CCCOc1ccc(C2C(C(=O)c3cc4ccccc4o3)C(=O)C(=O)N2c2cc(C)on2)cc1OC (stereo unspecified) [MLS001142810] | > 150 µM |
| N#CC(C(=O)CN1CCN(c2ccccc2F)CC1)c1nc(-c2ccccc2)cs1 (stereo unspecified) [(2Z)-4-[4-(2-fluorophenyl)piperazin-1-yl]-3-oxidanylidene-2-(4-phenyl-3H-1,3-thiazol-2-ylidene)butanenitrile] | > 150 µM |
| O=[N+]([O-])c1cccc(CN=Nc2nc(N3CCCCC3)nc(N3CCCCC3)n2)c1 [N-[(3-nitrophenyl)methylideneamino]-4,6-bis(1-piperidinyl)-1,3,5-triazin-2-amine] | 39.4 µM |
| COc1ccc(CC(=O)N/N=C/C2C=C([N+](=O)[O-])C=C(Br)C2=O)cc1 (stereo unspecified) | > 150 µM |
| O=C1C(=NNC(=S)Nc2ccccc2F)c2ccccc2N1Cc1ccccc1 [SMR000314861] | > 150 µM |
| CC(N=Nc1nc(-c2ccccc2F)nc2ccccc12)c1ccccc1O (stereo unspecified) [2-(1-{[2-(2-Fluoro-phenyl)-quinazolin-4-yl]-hydrazono}-ethyl)-phenol] | > 150 µM |
| c1csc(CN=Nc2ncnc3sc4c(c23)CCC4)c1 [MLS000571423] | > 150 µM |
| CN(C)c1ccc(C2CC(c3ccc(Cl)cc3OC(F)F)=Nc3ncnn32)cc1 (stereo unspecified) | > 150 µM |
| Cc1ccc(NNC2=CS(=O)(=O)N(C)c3ccsc32)cc1 [4-methyl-N-[(1-methyl-2,2-dioxo-4-thieno[3,2-c]thiazinylidene)amino]aniline] | 4.04 µM |
| COC(=O)/N=N/C=C1\C=[N+]([O-])c2ccccc2N1O [MLS001333201] | > 150 µM |
| COc1ccccc1Nc1oc2cc(=O)ccc-2cc1C(N)=O [2-(2-methoxyanilino)-7-oxo-1-benzopyran-3-carboxamide] | > 150 µM |

| SMILES | EC50 |
| --- | --- |
| COc1ccc(CN=Nc2nc(Nc3ccccc3)nc(N3CCCCC3)n2)cc1OC [N2-[(3,4-dimethoxyphenyl)methylideneamino]-N4-phenyl-6-piperidin-1-yl-1,3,5-triazine-2,4-diamine] | > 150 µM |
| O=C(O)c1ccc(N=NCc2ccc(OC(=O)c3ccccc3Cl)cc2)cc1 [MLS000589715] | > 150 µM |
| O=C(N/N=C/C1C=C(Cl)C=C([N+](=O)[O-])C1=O)c1ccccc1NS(=O)(=O)c1cccs1 (stereo unspecified) [SMR000364876] | > 150 µM |
| O=C1N=c2ccccc2=C1NNC(=S)N1CCOCC1 [MLS000778251] | > 150 µM |
| Cc1ccc(O)c(C2CC(c3ccc(Cl)cc3)N=N2)c1 (stereo unspecified) [SMR000414826] | > 150 µM |
| CC(C)(C)c1cc(-c2cs/c(=N\c3ccccc3)n2Cc2ccc(C(=O)O)cc2)cc(C(C)(C)C)c1O [4-[[4-(3,5-ditert-butyl-4-oxidanyl-phenyl)-2-phenylazanyl-1,3-thiazol-3-ium-3-yl]methyl]benzoic acid;bromide] | > 150 µM |
| Cc1nn(-c2ccccc2)c(C)c1CN=Nc1nc2ccccc2[nH]1 | > 150 µM |
| Cc1ccc(C(=O)CC(=O)C(=O)NC23CC4CC(CC(C4)C2)C3)cc1 [(Z)-N-(1-adamantyl)-4-hydroxy-4-(4-methylphenyl)-2-oxobut-3-enamide] | > 150 µM |
| COc1cccc(CN=Nc2cc(N3CCOCC3)ncn2)c1O [(6E)-2-methoxy-6-[[N'-(6-morpholinopyrimidin-4-yl)hydrazino]methylene]cyclohexa-2,4-dien-1-one] | > 150 µM |
| Cc1ccc(SCC(=O)C(C#N)c2nc3ccccc3s2)cc1 (stereo unspecified) [(2Z)-2-(3H-1,3-benzothiazol-2-ylidene)-3-keto-4-(p-tolylthio)butyronitrile] | > 150 µM |
| C=CCOC(=O)C1=C(C)N=C(SCC)C(C#N)C1c1ccc(Cl)cc1 (stereo unspecified) [4-(4-Chloro-phenyl)-5-cyano-6-ethylsulfanyl-2-methyl-1,4-dihydro-pyridine-3-carboxylic acid allyl ester] | 8.34 µM |
| O=C(CC1=NC2(CCCC2)Cc2ccccc21)C(=O)NN=Cc1ccccc1O [SMR000219463] | > 150 µM |
| O=NC(c1ccc(Cl)cc1Cl)c1ncc(C(F)(F)F)cc1Cl (stereo unspecified) [MLS000540015] | 35.2 µM |
| COc1ccc(OC)c(C2CC(C34CC5CC(CC(C5)C3)C4)=NC(=S)N2)c1 (stereo unspecified) [6-Adamantan-1-yl-4-(2,5-dimethoxy-phenyl)-3,4-dihydro-1H-pyrimidine-2-thione] | 14.7 µM |
| O=Nc1c(C2C(=O)Nc3cc(Br)ccc32)[nH]c2ccccc12 (stereo unspecified) [6-bromoindirubin-3-oxime] | 44.9 µM |
| CC1(C)CC(=O)C(C2C3=C(CC(C)(C)CC3=O)Oc3c(Br)cc(Br)cc32)C(=O)C1 (stereo unspecified) [5,7-bis(bromanyl)-9-(4,4-dimethyl-2-oxidanyl-6-oxidanylidene-cyclohexen-1-yl)-3,3-dimethyl-4,9-dihydro-2H-xanthen-1-one] | 24.8 µM |
| Cc1cc(Br)c(OCc2ccc(C(=O)NN=C3CC4CCC=C34)cc2)c(Br)c1 (stereo unspecified) [MLS000335385] | > 150 µM |
| Cc1ccc2nc(-n3c(O)c[nH]c3=S)sc2c1 | > 150 µM |
| N#CC(C(=O)CCl)c1nc2c(s1)CCc1ccccc1-2 (stereo unspecified) [MLS001171530] | > 150 µM |
| CCOc1cc(CN=Nc2cc(C)nc(-n3nc(C)cc3C)n2)ccc1O [4-{[2-(3,5-Dimethyl-pyrazol-1-yl)-6-methyl-pyrimidin-4-yl]-hydrazonomethyl}-2-ethoxy-phenol] | > 150 µM |
| O=C(N/N=C/C1C=C([N+](=O)[O-])C=CC1=O)c1cccc(NC(=O)c2cccc(Cl)c2)c1 (stereo unspecified) | > 150 µM |

| SMILES | EC50 |
| --- | --- |
| Cc1cc2nc(-n3c(O)c[nH]c3=S)sc2cc1C [SMR000272190] | > 150 µM |
| CC(N=Nc1nc2ccccc2[nH]1)c1ccc2c(c1)OCO2 (stereo unspecified) [SMR000354227] | > 150 µM |
| O=c1ccc2[n+]([O-])c3ccccc3n(O)c-2c1 [10-hydroxy-5-oxidophenazin-5-ium-2-one] | > 150 µM |
| O=C1NC(=O)N(Cc2ccccc2)C(=O)C1=CNNC(=O)c1ccccc1 [N'-[(E)-[2,4,6-tris(oxidanylidene)-1-(phenylmethyl)-1,3-diazinan-5-ylidene]methyl]benzohydrazide] | > 150 µM |
| CC(C)(C)C1CCC2=C(C#N)C(=N)C(C#N)(C#N)C(c3cccs3)C2C1 (stereo unspecified) [MLS000552642] | 25.7 µM |
| CC(=N)C(C#N)C(=O)CSc1nc2cc(Cl)ccc2c(=O)n1Cc1ccco1 (stereo unspecified) [(E)-3-amino-2-[2-[7-chloro-3-(furan-2-ylmethyl)-4-oxoquinazolin-2-yl]sulfanylacetyl]but-2-enenitrile] | > 150 µM |
| CC1=CC(C)(C)N2C(=O)/C(=N\N)c3c(C)c(C)cc1c32 [SMR000414935] | 16.3 µM |
| O=C1N=C(Nc2ccc(F)cc2)SC1=Cc1c[nH]c2ccccc12 [(5Z)-2-[(4-fluorophenyl)amino]-5-(1H-indol-3-ylmethylidene)-1,3-thiazol-4-one] | > 150 µM |
| COc1cc(CN=Nc2ncnc3sc4c(c23)CCC4)ccc1O [SMR000242188] | 5.06 µM |
| Cc1cccc(NC(=O)C2=C(N)C(C(=O)N3CCOCC3)/C(=N/c3c(C)cccc3C)S2)c1 (stereo unspecified) [3-amino-5-(2,6-dimethylphenyl)imino-N-(3-methylphenyl)-4-(morpholine-4-carbonyl)-2H-thiophene-2-carboxamide] | 3.32 µM |
| CC(=NNC(=N)Sc1cc(O)n(-c2ccc(Br)cc2)c1O)c1cccs1 [[1-(4-bromophenyl)-2,5-bis(oxidanylidene)pyrrolidin-3-yl] N''-(1-thiophen-2-ylethylideneamino)carbamimidothioate] | 9.08 µM |
| CC(N=Nc1ccc(Cl)c(Cl)c1)c1ccc(-n2ccnc2)cc1 (stereo unspecified) | 17.2 µM |
| Cc1ccc(NN=C(C=O)C(=O)c2ccc(Cl)cc2)cc1 [3-(4-chlorophenyl)-2-[(4-methylphenyl)hydrazinylidene]-3-oxopropanal] | 50 µM |
| C=Nc1c(N(C(C)=O)c2ccc(Br)cc2)c(O)c2ccccc2c1O [MLS000700612] | 23.9 µM |
| CNC(=O)c1c(NC(=O)c2ccc(-n3c(O)ccc3O)cc2)sc2c1CCC(C)C2 (stereo unspecified) [SMR000806319] | > 150 µM |
| Oc1nc(Nc2ccccn2)sc1Cc1ccc(Cl)cc1 [SMR000288952] | > 150 µM |
| COc1cc(CN=Nc2nc(Nc3ccc(C)cc3)nc(-n3nc(C)cc3C)n2)cc(OC)c1OC | > 150 µM |
| CC(Oc1ccc(Cl)cc1Cl)C(=O)Nc1cc(=O)n(-c2ccccc2)[nH]1 (stereo unspecified) [SMR000195064] | 123 µM |
| CC(C)c1oc(NC(=O)Nc2ccc(Cl)c(Cl)c2)nc1O [MLS000053797] | > 150 µM |

From BindingDB's records for doi:10.7270/Q2736PBV (Broad Institute, 2009)
